Experimental data taken from patent US9676720B2, “Substituted biaryl compound” (UBE INDUSTRIES, LTD., priority 2013, dated 2017).

System: Pulmonary fibroblasts derived from a human fetus (IMR90)
Test: Test for inhibition of pulmonary fibroblast proliferation (BrdU incorporation)
Type: cell-based
Conditions: Homo sapiens, IMR-90, read-out: IC50 value (nM) of inhibition effect of pulmonary fibroblast proliferation
Description: Measurement of inhibition effect of pulmonary fibroblast proliferation was performed by modifying the method of Huang et al. (American Journal of Respiratory Cell and Molecular Biology, 39, 482 (2008)). Pulmonary fibroblasts derived from a human fetus (IMR90, purchased from American Type Culture Collection) were cultured in DMEM medium containing 10% FBS and seeded at 1×10^4 cells/well of a 96-well plate. After culturing for approximately 8 hours in a carbon dioxide incubator, the medium was replaced with FBS-free DMEM medium and the culturing was performed for one night. On the following day, the medium was replaced with a new FBS-free DMEM medium, and then a test compound dissolved in dimethyl sulfoxide (final concentration: 0.1%) and FGF (final concentration: 10 ng/mL, manufactured by Wako Pure Chemical Industries, Ltd.) were added thereto and allowed to stand undisturbed in a carbon dioxide incubator. After 22 hours, a BrdU labeling solution (manufactured by Roche) was added and culturing was performed for another 2 hours. After the completion of the culturing, amount of BrdU incorporation was measured using Cell Proliferation ELISA BrdU (colorimetric) (manufactured by Roche). The concentration of the test compound required to inhibit BrdU incorporation to 50% (IC50 value) was calculated by non-linear regression of the test compound concentration and the amount of BrdU incorporation using EXSAS (Ver. 8.0.0, manufactured by Arm Systex).

First: CC#Cc1ccc(-c2ccc(CN(Cc3cccc(NCC(=O)O)n3)S(=O)(=O)c3ccccn3)cc2)cc1 [Comparative example 17]
Second: CC#Cc1ccccc1-c1ccc(CN(Cc2cccc(NCC(=O)O)n2)S(=O)(=O)c2ccccn2)cc1 [Comparative example 16]
The IC50 of the first is higher: > 1 nM for the first, 0.5 nM for the second. The second is the more potent here.

First: CC#Cc1cccc(-c2ccc(CN(Cc3cccc(NCC(=O)O)n3)S(=O)(=O)c3cccnc3)cc2)c1 [Example 6, (6-{[3′-(1-Propynyl)biphenyl-4-ylmethyl](pyridin-3-ylsulfonyl)aminomethyl}-pyridin-2-ylamino)acetic acid]
Second: CC#Cc1cccc(-c2ccc(CN(Cc3cccc(NCC(=O)O)n3)S(=O)(=O)c3cccc(F)c3)cc2)c1 [Example 19, (6-{(3-Fluorobenzenesulfonyl)[3′-(1-propynyl)biphenyl-4-ylmethyl]-aminomethyl}pyridin-2-ylamino)acetic acid]
The IC50 of the first is 1.7-fold higher: 0.045 nM for the first, 0.026 nM for the second.

Compared with `O=C(O)CNc1cccc(CN(Cc2ccc(-c3ccccc3)cc2)S(=O)(=O)c2ccccn2)n1` [Comparative example 1], `O=C(O)CNc1cccc(CN(Cc2ccc(-c3ccccc3)cc2)S(=O)(=O)c2cccnc2)n1` [Comparative example 2, {6-[(Biphenyl-4-ylmethyl)(pyridin-3-ylsulfonyl)aminomethyl]pyridin-2-ylamino}acetic acid] is lower in IC50: > 1 nM for the first, 0.97 nM for the second. The second is the more potent here.

First: CC#Cc1cccc(-c2ccc(CN(Cc3cccc(NCC(=O)O)n3)S(=O)(=O)c3cccs3)cc2)c1 [Example 14, (6-{[3′-(1-Propynyl)biphenyl-4-ylmethyl](thiophen-2-ylsulfonyl)-aminomethyl}pyridin-2-ylamino)acetic acid]
Second: CCOc1cccc(-c2ccc(CN(Cc3cccc(NCC(=O)O)n3)S(=O)(=O)c3cccnc3)cc2)c1 [Example 9, {6-[(3′-Ethoxybiphenyl-4-ylmethyl)(pyridin-3-ylsulfonyl)aminomethyl]-pyridin-2-ylamino}acetic acid]
The IC50 of the first is 4.6-fold lower: 0.011 nM for the first, 0.051 nM for the second. The first is the more potent here.

`O=C(O)CNc1cccc(CN(Cc2ccc(-c3ccc(F)cc3)cc2)S(=O)(=O)c2cccnc2)n1` [Comparative example 3, {6-[(4′-Fluorobiphenyl-4-ylmethyl)(pyridin-3-ylsulfonyl)aminomethyl]-pyridin-2-ylamino}acetic acid] was tested, and the IC50 was > 1 nM.

Same assay, conditions: Homo sapiens, IMR-90; IMR90; FGF 10 ng/mL; BrdU incorporation; read-out: IC50 value (nM) of inhibition effect of pulmonary fibroblast proliferation

Compared with `COc1cccc(-c2ccc(CN(Cc3cccc(NCC(=O)O)n3)S(=O)(=O)c3ccccn3)cc2)c1` [Comparative example 11], `CCOc1cccc(-c2ccc(CN(Cc3cccc(NCC(=O)O)n3)S(=O)(=O)c3ccccn3)cc2)c1` [Example 7, {6-[(3′-Ethoxybiphenyl-4-ylmethyl)(pyridin-2-ylsulfonyl)aminomethyl]-pyridin-2-ylamino}acetic acid] is 7.1-fold lower in IC50: 0.2 nM for the first, 0.028 nM for the second.

Compared with `CC=Cc1cccc(-c2ccc(CN(Cc3cccc(NCC(=O)O)n3)S(=O)(=O)c3ccccn3)cc2)c1` [Example 2], `Cc1cccc(-c2ccc(CN(Cc3cccc(NCC(=O)O)n3)S(=O)(=O)c3ccccn3)cc2)c1` [Comparative example 6] is 17-fold higher in IC50: 0.035 nM for the first, 0.58 nM for the second.

Going from `CCc1cccc(-c2ccc(CN(Cc3cccc(NCC(=O)O)n3)S(=O)(=O)c3ccccn3)cc2)c1` [Comparative example 7] to `CCCc1cccc(-c2ccc(CN(Cc3cccc(NCC(=O)O)n3)S(=O)(=O)c3ccccn3)cc2)c1` [Comparative example 8], the IC50 falls from 0.88 nM to 0.34 nM (2.6-fold).

Going from `CCOc1ccccc1-c1ccc(CN(Cc2cccc(NCC(=O)O)n2)S(=O)(=O)c2ccccn2)cc1` [Comparative example 13] to `CCOc1cccc(-c2ccc(CN(Cc3cccc(NCC(=O)O)n3)S(=O)(=O)c3ccccn3)cc2)n1` [Example 12, (6-{[4-(6-Ethoxypyridin-2-yl)benzyl](pyridin-2-ylsulfonyl)aminomethyl}-pyridin-2-ylamino)acetic acid], the IC50 falls from > 1 nM to 0.037 nM. The second is the more potent here.

`C=CCc1cccc(-c2ccc(CN(Cc3cccc(NCC(=O)O)n3)S(=O)(=O)c3ccccn3)cc2)c1` [Comparative example 10] was tested, and the IC50 was 0.56 nM.
